Columns and labels:
[1] = tested on: H358 lung cancer cells; format: cell-based
Method: (§1) Control cells were left untreated. […] Control cells were left untreated.
Cells were given fresh inhibitor on the first, second, and third days of treatment and viability was measured on the 4th day (i.e. 3 days post start of treatment). […]
(A) Structure of Spd-3a. (B) Western analysis of histone H3K9-acetylation and total histone H3, measured in control, untreated H358 lung cancer cells “C” or in H358 cells incubated 12 hours in the presence of 50 μM Spd-2a or Spd-3a. Each lane represents 60 μg cellular protein. (C) [3H]-thymidine incorporation (counts per minute) into DNA of H358 cells during a 6 hour pulse beginning at 42 hours post-start of treatment. Treatments were as follows (bars 1-6 left to right): (1) control: no treatment; (2) CPT alone: 5 nM 18 hours; (3) 3a alone: 50 μM; (4-6) 3a+CPT: CPT (5 nm, 18 hours)+3a at indicated dose. After 18 hours, CPT was removed and medium was replaced with fresh medium containing Spd-3a at the indicated dose. Each bar represents the average of triplicates. (D) 3-day 96-well viability assay of H358 cells grown in the presence of increasing amounts of Spd-2a or Spd-3a, with or without CPT (5 nM 18 hours). […] Each data point represents the average of three wells.
(§2) Date of exp: Jul. […] Date of exp: Sep.
(§3) Cells were plated in 96-well plates at 2000 cells per well and treated with the indicated doses of spd-3a. Cell viability was measured by the MTS assay 3 days later.
DLD-1 cells or H358 cells were plated in 96-well plates at 2000 cells per well and treated with the indicated doses of (A) spm-3 or (B) spm-2. (C) Cell viability was measured by the MTS assay 3 days later. Similar experiment using GT41 fibroblasts with spm2 or spm 3. Each assay point represents an average of duplicates. […]

[2] = tested on: endogenous HATs associated with solubilized chromatin; conditions: Bandyopadhyay et al, 2009; cited from earlier work
[3] = tested on: MCF7 breast cancer cells; conditions: for effect as single agent on viability: 72 hr assay, DFMO 100 μM, 5FU 2 μM, doxorubicin 100 nM
Method: Viability was measured 3 days after the start of treatment and is expressed as a percentage of control (untreated) cell viability.
Each point is average of triplicates. […]
The present inventors carried out 96-well viability assays as we have previously described (Saadatmandi et al, Cancer Gene Therapy (2002) 9:830-9), in which MCF7 breast cancer cells were plated at 3000 cells per well. After overnight attachment, triplicate wells were treated with increasing doses of inhibitor 1a. Control wells were left untreated. After 3 days, cell viability was measured by the MTS assay, which measures the bioconversion of an uncolored substrate to a colored formazan derivative, and is proportional to cell number.

[4] = tested on: γ-H2A.X in H358 cells; assay: γ-H2A.X Western / double strand break repair assay; format: cell-based; conditions: 18 hours post-start; low doses as in FIG. 3
Method: Also shown are controls for no treatment (“c” minus 1a) or treatment with 1a only (“c” plus 1a). Each lane represents 60 μg protein. […] Each lane represents 60 μg protein.
To measure DSB repair, cells were incubated for 1 hour with 10 μM camptothecin to induce DSBs, followed by incubation in the presence or absence of 50 μM 1a. At fixed times, histones were prepared by extraction in 0.2M H2SO4 as described previously and 50 μg extract was analyzed by 12% SDS-PAGE followed Western analysis as described previously, using rabbit polyclonal anti-γ-H2A.X [phosphor ser 139] (Novus Biologicals, Littleton, Colo.) or anti-H3 (Upstate Biotechnology, Inc, Lake Placid, N.Y.). Band intensities were quantitated digitally. To study acetylation of γ-H2A.X, we carried out co-immunoprecipitation analysis using 50 μg extract protein in immunoprecipitation buffer (10 mM sodium phosphate pH 7, 0.15 M NaCl, 0.1% SDS, 1% NP40, 1% sodium deoxycholate, aprotinin, 1 mM PMSF, complete protease inhibitors (Roche) using immobilized anti-acetyl-lysine (Millipore, Temecula, Calif.) in the immunoprecipitation step. The immunoprecipitated material was then analyzed as for Western analysis using anti γ-H2A.X.

[5] = tested on: MDA MB-435 breast cancer cells; assay: 72 hr viability assay, MDA MB-435; format: cell-based; conditions: 72 hr assay; DFMO 100 μM, 5FU 2 μM, doxorubicin 100 nM
[6] = tested on: H358 lung cancer cells; assay: [3H]-thymidine incorporation (DNA synthesis) assay in H358 cells; format: cell-based; conditions: 5 nM alone (18 or 24 hours)
Method: (A) Structures of 1a, and the acetylated side chain of a lysine residue within the polypeptide chain of a protein targeted by the acetylating enzyme (R1 and R2 are the main chain elements on both sides of the lysyl residue). (B) [^3H]-thymidine incorporation into DNA of H358 cells pulsed for 6 hrs at three different time points after the addition of increasing concentrations of 1a, i.e., at 6-12 hrs (12 hr curve), at 18-24 hours (24 hr curve), or at 42-48 hrs (48 hr curve). Incorporation is represented as a percentage relative to control (untreated) cells. (C) Cell cycle analysis of propidium iodide-stained cells harvested at various times after addition of 50 μM 1a. % of cells in G1, S, and G2 represents the average of two independent profiles. (D) Western analysis of histone H3 lysine 9 acetylation, histone H3 lysine 56 acetylation, histone H3 lysine 9 methylation, and total histone H3, before “c” or at the indicated times after addition of 50 μM 1a. Each lane represents 60 μg cellular protein.
as §1
Cells were either labeled immediately before treatment (starting DNA synthesis rate), or subjected to the indicated treatments and then pulsed on successive days until day 4. DNA synthesis is represented as the percent of starting DNA synthesis rate. Viability was determined for each treatment condition 24 hours post-start of treatment by the trypan blue exclusion assay, with percentages of viable cells indicated to the right of the graph.
H358 cells (2,000/well) in 96-well plates were treated with 1, 10 or 50 μM of spd-1a, spd-2a, spd-3a, spm3, or spm2 for 12 hours. Triplicate wells of cells were pulsed 6 hours with 0.5 μCi [^3H]-thymidine (NEN, Boston Mass.) post-start of drug treatment, and harvested onto filter paper using a Brandel Harvester and subjected to scintillation counting. Untreated cells were pulsed from 0-6 hrs to establish the initial rate of incorporation.
Cells were plated in 96-well plates (2000 cells per well to insure conditions for exponential growth for untreated cells over the time course of the experiment) and exposed to the following treatments: 1a (50 μM); camptothecin (Sigma, St Louis, Mo. 5 nM, 18 hours); cisplatin (Platinol, obtained through local pharmacies, 2 μM, 1 hour 15 minutes), 5-fluorouracil (5FU, Adrucil™, obtained through local pharmacies, 2 μM, 1 hour 15 minutes), Taxotere (provided by the late Dr. Pierre Potier, 5 nM, 18 hours). UVC treatment (40 J/m^2) using a Stratalinker™, Stratagene, La Jolla, Calif.) was carried using medium lacking phenol red. At 0-6 hr, 18-24 hr (day 1), 42-48 hr […], 66-72 hr (day 3), and 90-96 hr (day 4) post-start of treatment, triplicate wells were incubated with 0.5 μCi [^3H]-thymidine (NEN, Boston Mass.), harvested onto filter paper, and subjected to scintillation counting. Trypan blue exclusion assays for cell membrane integrity were carried out as known in the art.
The present inventors used 96-well viability assays as described in Saadatmandi et al (Cancer Gene Therapy (2002) 9:[…]) to examine the effect of 1a on DNA synthesis in H358 cells, as well as the combined effects of 1a and chemotherapeutic agents. H358 cells were plated in 96-well plates at 3000 cells per well. […]

[7] = tested on: GT41F human skin fibroblast cells; assay: [3H]-thymidine incorporation in normal fibroblasts; format: cell-based; conditions: 50 μM 1a alone or 5 nM camptothecin alone
Excerpt: Cells were either labeled immediately before treatment (starting DNA synthesis rate), or subjected to the indicated treatments and then pulsed on successive days until day 4. DNA synthesis is represented as the percent of starting DNA synthesis rate.
The present inventors used a 96-well viability assays as described in Saadatmandi et al (Cancer Gene Therapy (2002) 9:930-9) to examine the effect of the spermidine-CoA inhibitor disclosed previously on DNA synthesis in normal GT41F human skin fibroblast cells, as well as its combined effect with camptothecin. GT41F cells were plated in 96-well plates at 3000 cells per well. […] Following the 6-hour labeling, cells were harvested and incorporation of [^3H]-thymidine was determined by scintillation counting.

[8] = tested on: γ-H2A.X in DU145 prostate cancer cells; assay: γ-H2A.X immunofluorescence in DU145 cells; format: cell-based; conditions: 5 nM camptothecin alone, 8 hours
Excerpt: The immunofluorescence images on the left and right sides of the middle scheme illustrate this visually. […] Cells were fixed and stained with a rabbit antibody to the histone variant, γ-H2A.X, a marker for DNA double stranded breaks, followed by staining with a fluorescein (FITC)-tagged goat anti rabbit secondary antibody. Nuclei were stained with Hoescht 33345.

[9] = tested on: DU145 prostate cancer cells; assay: Viability assay, DU145; format: cell-based; conditions: 5 nM camptothecin or 10 μM 2a
Method: as §3

[10] = tested on: BT20 TNBC cells; assay: 3-day viability assay, BT20; format: cell-based; conditions: 5 nM
Excerpt: as §2
The effect of spd-2a on the BT20 breast cancer cell line derived form a spontaneous TNBC with wild-type BrCa1 was examined. […] Having previously established that spd-2a is a therapy sensitizer, the present inventors then examined the combined effects of spd-2a and camptothecin (the basis for the chemotherapeutic drug, Irinotecan).

Q: With `CC(C)(COP(=O)(O)OP(=O)(O)OC[C@H]1O[C@@H](n2cnc3c(N)ncnc32)[C@H](O)[C@@H]1OP(=O)(O)O)[C@@H](O)C(=O)NCCC(=O)NCCSCC(=O)NCCCCNCCCN` [1b, spermidine [N8]-CoA] as the compound, how does the “suppression of 3 day cell viability” value [1] read?
A: 60-70%

Q: And the “inhibitory activity against endogenous HAT activity, isomers compared” value [2]?
A: comparable inhibitory activity

Q: For `O=c1[nH]cc(F)c(=O)[nH]1` [5FU, 5-Fluorouracil], which “effect as single agent on viability” value [3] is on record?
A: minimal effects

Q: What about the “γ-H2A.X level, single agent” value [4] of the same compound?
A: weakly detectable

Q: And the “effect as single agent on viability” value [5]?
A: minimal effects

Q: For `CC[C@@]1(O)C(=O)OCc2c1cc1n(c2=O)Cc2cc3ccccc3nc2-1` [camptothecin], which “effect of camptothecin alone on [3H]-thymidine incorporation” value [6] is on record?
A: no detectable effect

Q: What about the “2-day cell viability relative to untreated cells” value ([3]; 5 nM camptothecin alone, 18 hour) of the same compound?
A: no effect

Q: And the “γ-H2A.X level, single agent” value [4]?
A: weakly detectable

Q: And the “effect on incorporation of [3H]-thymidine, single agent” value [7]?
A: virtually no effect

Q: And the “DNA damage (γ-H2A.X staining)” value [8]?
A: minimal damage

Q: What about the “effect of the dose on cell viability, single agent” value [9] of the same compound?
A: minimal effects on cell viability

Q: What about the “effect of camptothecin by itself” value [10] of the same compound?
A: no effect

Q: Which “γ-H2A.X level, single agent” value [4] does the source give for `N.N.[Cl][Pt][Cl]` [cisplatin, cis-diamminedichloro-platinium] here?
A: weakly detectable

Q: For `COc1cccc2c1C(=O)c1c(O)c3c(c(O)c1C2=O)C[C@@](O)(C(=O)CO)C[C@@H]3O[C@H]1C[C@H](N)[C@H](O)[C@H](C)O1` [doxorubicin], which “effect as single agent on viability” value [3] is on record?
A: minimal effects

Q: And the “effect as single agent on viability” value [5]?
A: minimal effects
